# According to ChEMBL document CHEMBL1131891, “Antiplatelet actions of aporphinoids from Formosan plants” (Bioorg Med Chem Lett, 1999):
# How the values were obtained:
# Assay type in all cases: functional
# Oryctolagus cuniculus [1] = species: Oryctolagus cuniculus; assay: Effect on platelet aggregation induced by adenosine 5'-diphosphate (ADP) in washed rabbit platelet
# Oryctolagus cuniculus [2] = species: Oryctolagus cuniculus; assay: Effect on platelet aggregation induced by platelet activating factor(PAF) in washed rabbit platelet
# Oryctolagus cuniculus [3] = species: Oryctolagus cuniculus; assay: Effect on platelet aggregation induced by arachidonic acid(AA) in washed rabbit platelet
# Oryctolagus cuniculus [4] = species: Oryctolagus cuniculus; assay: Inhibitory activity against platelet aggregation induced by arachidonic acid(AA) in washed rabbit platelet
# Oryctolagus cuniculus [5] = species: Oryctolagus cuniculus; assay: Inhibitory activity against platelet aggregation induced by platelet activating factor(PAF) in washed rabbit platelet
# Oryctolagus cuniculus [6] = species: Oryctolagus cuniculus; assay: Effect on platelet aggregation induced by collagen in washed rabbit platelet
# Oryctolagus cuniculus [7] = species: Oryctolagus cuniculus; assay: Inhibitory activity against platelet aggregation induced by collagen in washed rabbit platelet
Structure (SMILES),Aggregation (Oryctolagus cuniculus [1]) [%],Aggregation (Oryctolagus cuniculus [2]) [%],Aggregation (Oryctolagus cuniculus [3]) [%],IC50 (Oryctolagus cuniculus [4]; read-out: IC50) [µM],IC50 (Oryctolagus cuniculus [5]; read-out: IC50) [µM],Aggregation (Oryctolagus cuniculus [6]) [%],IC50 (Oryctolagus cuniculus [7]) [µM],IC50 (Oryctolagus cuniculus [4]) [µM],IC50 (Oryctolagus cuniculus [5]) [µM],IC50 (Oryctolagus cuniculus [7]; read-out: IC50) [µM]
COc1cc2c(cc1OC)C(O)C1c3c(c(OC)c(OC)c(OC)c3-2)CCN1C (configuration not stated),34.5,0,0,70.4,11.8,0,,,,
COc1cc2c3c(c1O)-c1ccccc1CC3N(C)CC2 (configuration not stated),86.3,51.7,0,171,,0,,,,
COc1cc2c(cc1OC)C(O)C1c3c(cc(OC)c(OC)c3-2)CCN1C (configuration not stated),78.3,0,21.8,,52.6,12.7,,,,
COc1cc2c(cc1O)C[C@H]1c3c(cc(OC)c(OC)c3-2)CC[N+]1(C)C.[I-],87.6,82.7,88.1,,,81.3,,,,
COc1ccc2c(c1OC)-c1c(OC)c(O)cc3c1[C@H](C2)N(C)CC3,89.4,78.6,86.5,,,83.5,,,,
COc1cc2c(cc1OC)-c1c3c(cc4c1[C@H](C2)N(OC)CC4)OCO3,86.8,92.2,80.9,,,87.3,,,,
CC1=NN(c2ccc([N+](=O)[O-])cc2)C(=O)C1[N+](=O)[O-].COc1cc2c(cc1O)C[C@@H]1NCCc3cc(O)c(OC)c-2c31,92.1,79.3,0,149,,4.6,,,,
COc1cc2c3c(c1OC)-c1ccccc1C[C@@H]3NCC2,77.1,30.6,0,211,,0,,,,
COc1c(O)ccc2c1-c1c(OC)c(O)cc3c1[C@H](C2)[N+](C)(C)CC3.[I-],90.7,85.5,83.7,,,89.8,,,,
COc1ccc2c(c1OC)-c1c3c(cc4c1[C@H](C2)[N+](C)(C)CC4)OCO3.[I-],88.6,83.9,89,,,77.6,,,,
Br.COc1c(O)ccc2c1-c1c3c(cc4c1[C@H](C2)NCC4)OCO3,91.8,91.6,60,,,0,,,,
COc1c(O)ccc2c1-c1c(OC)c(O)cc3c1[C@H](C2)NCC3.Cl,10.5,4,0,168,,0,,,,
CC(=O)Oc1ccccc1C(=O)O [ASPIRIN],77.9,90.4,0,,,87.4,> 1000,164,> 1000,
COc1ccc2c(c1OC)-c1c(OC)c(OC)cc3c1[C@H](C2)[N+](C)(C)CC3.[I-] [ISOCORYDINE METHIODIDE],90.2,85.6,71,,,87.9,,,,
CN1CCc2cc3c(c4c2[C@H]1Cc1ccccc1-4)OCO3.Cl [REMERINE HYDROCHLORIDE],67.2,27.8,0,195,,0,,,,88.2
